Reference: patent US11141413B2, “Method of treating renal cell carcinoma using N-(4-(6,7-dimethoxyquinolin-4-yloxy)phenyl)-N′-(4-fluorophenyl)cyclopropane-1,1-dicarboxamide, (2S)-hydroxybutanedioate” (Exelixis, Inc., priority 2016, dated 2021)

Tested on: patients with advanced renal cell carcinoma
Conditions: in vivo
Description: Treatment modifications, including interruptions and dose reductions, were allowed to manage adverse events. […] Patients were allowed to continue study treatment beyond radiographic progression at the discretion of the investigator. On-study crossover between treatment groups was not permitted. Safety evaluations, including physical examination, vital signs, and laboratory assessments, were conducted every 2 weeks for the first 8 weeks and then every 4 weeks thereafter. ECG assessments were performed every 4 weeks for the first 8 weeks and then every 12 weeks. A safety follow-up visit was scheduled 30 days after treatment discontinuation. Adverse events were assessed by investigators and graded according to CTCAE version 4.0.
Safety analyses were limited to patients who received any amount of study treatment.

## COc1cc2nccc(Oc3ccc(NC(=O)C4(C(=O)Nc5ccc(F)cc5)CC4)cc3)c2cc1OC [cabozantinib]
human
  Abdominal pain, Grade 1-2: 48 (15) n (%)
  Abdominal pain, Grade 3: 12 (4) n (%)
  Abdominal pain, Grade 4: 0 n (%)
  Alanine aminotransferase increased, Grade 1-2: 47 (14) n (%)
  Alanine aminotransferase increased, Grade 3: 7 (2) n (%)
  Alanine aminotransferase increased, Grade 4: 1 (<1) n (%)
  Anemia, Grade 1-2: 42 (13) n (%)
  Anemia, Grade 3: 19 (6) n (%)
  Anemia, Grade 4: 0 n (%)
  Any AE, Grade 1-2: 70 (21) n (%)
  Any AE, Grade 3: 210 (63) n (%)
  Any AE, Grade 4: 25 (8) n (%)
  Arthralgia, Grade 1-2: 43 (13) n (%)
  Arthralgia, Grade 3: 1 (<1) n (%)
  Arthralgia, Grade 4: 0 n (%)
  Aspartate aminotransferase increased, Grade 1-2: 55 (17) n (%)
  Aspartate aminotransferase increased, Grade 3: 5 (2) n (%)
  Aspartate aminotransferase increased, Grade 4: 0 n (%)
  Asthenia, Grade 1-2: 49 (15) n (%)
  Asthenia, Grade 3: 15 (5) n (%)
  Asthenia, Grade 4: 0 n (%)
  Back pain, Grade 1-2: 54 (16) n (%)
  Back pain, Grade 3: 8 (2) n (%)
  Back pain, Grade 4: 0 n (%)
  Blood creatinine increased, Grade 1-2: 17 (5) n (%)
  Blood creatinine increased, Grade 3: 1 (<1) n (%)
  Blood creatinine increased, Grade 4: 0 n (%)
  Constipation, Grade 1-2: 89 (27) n (%)
  Constipation, Grade 3: 1 (<1) n (%)
  Constipation, Grade 4: 0 n (%)
  Cough, Grade 1-2: 67 (20) n (%)
  Cough, Grade 3: 1 (<1) n (%)
  Cough, Grade 4: 0 n (%)
  Decreased appetite, Grade 1-2: 146 (44) n (%)
  Decreased appetite, Grade 3: 10 (3) n (%)
  Decreased appetite, Grade 4: 0 n (%)
  Diarrhea, Grade 1-2: 206 (62) n (%)
  Diarrhea, Grade 3: 43 (13) n (%)
  Diarrhea, Grade 4: 0 n (%)
  Diarrhea, all grades: 249 (75%) n (%)
  Diarrhea, grade 3 or 4: 43 [13%] n [%]
  Discontinuation due to a primary reason of AE (excluding disease progression): 10%
  Dizziness, Grade 1-2: 41 (12) n (%)
  Dizziness, Grade 3: 1 (<1) n (%)
  Dizziness, Grade 4: 0 n (%)
  Dry skin, Grade 1-2: 37 (11) n (%)
  Dry skin, Grade 3: 0 n (%)
  Dry skin, Grade 4: 0 n (%)
  Dysgeusia, Grade 1-2: 80 (24) n (%)
  Dysgeusia, Grade 3: 0 n (%)
  Dysgeusia, Grade 4: 0 n (%)
  Dyspepsia, Grade 1-2: 40 (12) n (%)
  Dyspepsia, Grade 3: 1 (<1) n (%)
  Dyspepsia, Grade 4: 0 n (%)
  Dysphonia, Grade 1-2: 68 (21) n (%)
  Dysphonia, Grade 3: 2 (<1) n (%)
  Dysphonia, Grade 4: 0 n (%)
  Dyspnoea, Grade 1-2: 56 (17) n (%)
  Dyspnoea, Grade 3: 10 (3) n (%)
  Dyspnoea, Grade 4: 0 n (%)
  Edema peripheral, Grade 1-2: 39 (12) n (%)
  Edema peripheral, Grade 3: 0 n (%)
  Edema peripheral, Grade 4: 0 n (%)
  Epistaxis, Grade 1-2: 14 (4) n (%)
  Epistaxis, Grade 3: 0 n (%)
  Epistaxis, Grade 4: 0 n (%)
  Fatigue, Grade 1-2: 159 (48) n (%)
  Fatigue, Grade 3: 36 (11) n (%)
  Fatigue, Grade 4: 0 n (%)
  Fatigue, all grades: 195 (59%) n (%)
  Fatigue, grade 3 or 4: 36 [11%] n [%]
  Flatulence, Grade 1-2: 33 (10) n (%)
  Flatulence, Grade 3: 0 n (%)
  Flatulence, Grade 4: 0 n (%)
  Grade 3 and 4 adverse events: Hyperglycemia, %: 1 (1) %
  Grade 3 or 4 Adverse Events: Hypercalcemia (event of interest), %: (1) %
  Grade 3 or 4 Adverse Events: Hyperglycemia, %: (1) %
  Grade 3 or 4 Adverse Events: PPES, %: (8) %
  Grade 3 or 4 adverse events: 235 (71%) n (%)
  Grade 5 adverse events regardless of causality: 7.9%
  Headache, Grade 1-2: 43 (13) n (%)
  Headache, Grade 3: 1 (<1) n (%)
  Headache, Grade 4: 0 n (%)
  Hyperglycemia, Grade 1-2: 15 (5) n (%)
  Hyperglycemia, Grade 3: 2 (<1) n (%)
  Hyperglycemia, Grade 4: 1 (<1) n (%)
  Hypertension, Grade 1-2: 73 (22) n (%)
  Hypertension, Grade 3: 49 (15) n (%)
  Hypertension, Grade 4: 0 n (%)
  Hypertension, grade 3 or 4: 49 [15%] n [%]
  Hypertriglyceridemia, Grade 1-2: 17 (5) n (%)
  Hypertriglyceridemia, Grade 3: 4 (1) n (%)
  Hypertriglyceridemia, Grade 4: 0 n (%)
  Hypomagnesaemia, Grade 1-2: 38 (12) n (%)
  Hypomagnesaemia, Grade 3: 6 (2) n (%)
  Hypomagnesaemia, Grade 4: 10 (3) n (%)
  Hypothyroidism, Grade 1-2: 76 (23) n (%)
  Hypothyroidism, Grade 3: 0 n (%)
  Hypothyroidism, Grade 4: 0 n (%)
  Insomnia, Grade 1-2: 32 (10) n (%)
  Insomnia, Grade 3: 0 n (%)
  Insomnia, Grade 4: 0 n (%)
  Mucosal inflammation, Grade 1-2: 60 (18) n (%)
  Mucosal inflammation, Grade 3: 5 (2) n (%)
  Mucosal inflammation, Grade 4: 0 n (%)
  Muscle spasms, Grade 1-2: 45 (14) n (%)
  Muscle spasms, Grade 3: 0 n (%)
  Muscle spasms, Grade 4: 0 n (%)
  Nausea, Grade 1-2: 158 (48) n (%)
  Nausea, Grade 3: 15 (5) n (%)
  Nausea, Grade 4: 0 n (%)
  Nausea, all grades: 173 (52%) n (%)
  Overall incidence of adverse events regardless of causality: 100%
  Pain in extremity, Grade 1-2: 46 (14) n (%)
  Pain in extremity, Grade 3: 5 (2) n (%)
  Pain in extremity, Grade 4: 0 n (%)
  Palmar-plantar erythrodysaesthesia syndrome, Grade 1-2: 115 (35) n (%)
  Palmar-plantar erythrodysaesthesia syndrome, Grade 3: 27 (8) n (%)
  Palmar-plantar erythrodysaesthesia syndrome, Grade 4: 0 n (%)
  Patients with dose reductions: 62%
  Proteinuria, Grade 1-2: 37 (11) n (%)
  Proteinuria, Grade 3: 8 (2) n (%)
  Proteinuria, Grade 4: 0 n (%)
  Pruritus, Grade 1-2: 27 (8) n (%)
  Pruritus, Grade 3: 0 n (%)
  Pruritus, Grade 4: 0 n (%)
  Pyrexia, Grade 1-2: 31 (9) n (%)
  Pyrexia, Grade 3: 3 (<1) n (%)
  Pyrexia, Grade 4: 0 n (%)
  Rash, Grade 1-2: 52 (16) n (%)
  Rash, Grade 3: 2 (<1) n (%)
  Rash, Grade 4: 0 n (%)
  Serious adverse events ≥grade 3: 130 (40%) n (%)
  Stomatitis, Grade 1-2: 65 (20) n (%)
  Stomatitis, Grade 3: 8 (2) n (%)
  Stomatitis, Grade 4: 0 n (%)
  Study treatment discontinuation due to diarrhea: 0.9%
  Treatment discontinuation due to an adverse event not related to disease progression: 12%
  Vomiting, Grade 1-2: 106 (32) n (%)
  Vomiting, Grade 3: 7 (2) n (%)
  Vomiting, Grade 4: 0 n (%)
  Weight decreased, Grade 1-2: 105 (32) n (%)
  Weight decreased, Grade 3: 9 (3) n (%)
  Weight decreased, Grade 4: 0 n (%)
  Grade 5 adverse events assessed as treatment-related: One
